Consider one compound from patent publication US9399032B2, “Methods and compositions for treating degenerative and ischemic disorders” (The General Hospital Corporation, priority 2009, dated 2016).

Test [1] deals with human skin fibroblasts, mouse striatal cells, human embryonic kidney cells, and Hela cells. The test can be described thus: OCR and ECAR in other cell types. Particulars: 50 μM, 200 minutes. In kind it is cell-based. How it is done:
The OCR and ECAR measurements on HeLa, 293, and STHdh^Q7/7 mouse striatal cells were carried out by growing them in XF24 plates at 40,000/well (HeLa) and STHdh^Q7/7 mouse striatal cells) and 60,000/well (293 cells) for ˜20 hours in their regular growth conditions. The assay medium was the same as above except that 25 mM glucose was used as the sugar source. The measurements were performed simultaneously every 7 minutes after a 2 minute mix and 2 minute wait period for MCH fibroblasts and every 6 minutes (with 2 minutes mix and 2 minute wait) for HeLa, 293, and STHdh^Q7/7 mouse striatal cells. Three baseline measurements were recorded prior to the addition of oligomycin (Biochemika 75352), Antimycin (Sigma A8674), roetnone (Sigma R8875), carbonyl cyanide 3-chlorophenylhydrazone (Sigma C2759) and meclizine hydrochloride (MSDiscovery 01500376). 50 mM stock solution of meclizine was made in DMSO, which was diluted to specified concentration in assay medium and its pH was adjusted to 7.4 by 1N Sodium hydroxide solution. The measurements were carried out at 33° C. for mouse striatal cells but for all other cell types measurement were done at 37° C.

Test [2] deals with primary cortical neurons isolated from mouse embryos. The test can be described thus: OCR in primary cortical neurons. Type of test: cell-based. To be noted: 5 and 10 μM. How it is done:
Oxygen consumption rate (OCR) measurements following meclizine (5 and 10 μM) or antimycin (1 μM) addition at time 0 (min) in mouse primary cortical neurons obtained from day E14-15 embryos. Data are expressed as mean+/−SD (n≧3).
Meclizine was confirmed to shift a cell's relative reliance on OXPHOS versus glycolysis by whole cell bioenergetic kinetic assays. […] This was true in primary cardiomyocytes isolated from rat heart (FIG. 3K) and primary cortical neurons isolated from mouse embryos (FIG. 3L). Cardiomyocytes were exposed to the indicated concentration of meclizine for 20 min followed by oxygen measurement in a respiration chamber. Oxygen consumption rate (OCR) measurements were made following meclizine (5 and 10 μM) or antimycin (1 μM) addition at time 0 (min) in mouse primary cortical neurons obtained from day E14-15 embryos.

For the next test, the system named is HIF1-α and HIF2-α. Briefly: HIF stabilization (Western blot, HIF reporter). Type of test: cell-based. To be noted: HeLa cells, 50 μM, 6 h. On the procedure:
FIGS. 10A-10B present exemplary data showing the effect of meclizine on HIF-1α stabilization. 10A, HIF-1α and HIF-2α detection by western blot analysis of protein extract from HeLa cells after 6-h treatment with 0.1% DMSO, 100 μM deferoxamine (DFO) or […]. 10B, a bar graph showing HIF reporter activity measured in transiently transfected HeLa cells following 6 hours treatment with DMSO, 100 μM DFO or 50 μM Mec. NTC refers to non-transfected control. Data is representative of 2 independent experiments done in triplicate. (*P<0.05; two sided t-test).
To explore this hypothesis, activation of glycolysis via hypoxia inducible factor (HIF), a known transcriptional activator of glycolysis, was tested. HIF1-α and HIF2-α stabilization was assessed in HeLa cells by carrying out Western blot detection using anti-HIF1-α antibody (Cell Signaling Cat. No. 3716) and anti-HIF2-α antibody (Novus Biologicals). Protein was extracted from cells pre-treated with either 0.1% DMSO, 50 μM meclizine or 100 μM deferoxamine (Sigma Cat. No. D9533). Western detection of Glutaminase (GLS) was carried out on protein extracts from 293 cells using anti-GLS antibodies (gift from Dr. Javier Marquez, University of Malaga, Spain).
(A western blot detects proteins with antibodies after separation by electrophoresis.)

Test [3] deals with C. elegans expressing 128Q huntingtin fragment in touch receptor neurons. In kind it is in vivo. On the procedure:
Meclizine was also tested in an animal model of Huntington's disease. Transgenic C. elegans touch receptor neurons express an N-terminal fragment of huntingtin (htt) comprising 128 glutamine repeats, as opposed to seventeen glutamine repeats in the wild type protein. These neurons show polyQ-dependent neuronal dysfunction resulting in defective posterior mechanosensation. Parker et al., Nat Genet 37:349 (2005) Animals co-expressing YFP and N-terminal htt fused to CFP in touch receptor neurons were used for drug testing. See, eg., Parker et al., Proc Natl Acad Sci USA 98:13318 (2001). Synchronized L1 larvae, obtained by hypochlorite extraction, were incubated with drugs in 96 wells plates in 50 μl M9 medium with OP-50 bacteria and […] streptomycin, at 20° C. during 3 days as previously described. Three independent assays were performed and a minimum of 100 worms were tested per dose.
Worms were treated with DMSO or 33 μM meclizine for 3 days. Animals were considered as touch responsive if they reacted after light touch (e.g., by initiating a backward movement). Out of 3 touches, 2 or 3 reactions were regarded as responsive, and 0 or 1 reaction was regarded as unresponsive. Htt aggregation and axonal morphology in PLM neurons were scored using light microscopy as previously described (Parker et al., Proc Natl Acad Sci USA 98:13318 (2001)). Htt aggregation was scored using CFP fluorescence, axonal dystrophy was quantified using YFP fluorescence to detect axonal swelling.
Protein quantity was normalized using an anti-actin antibody (MP Biochemicals 69100).

For test [4], the system named is UAS-Htt-Q128/elav-GAL4 flies. The test can be described thus: Transgenic Drosophila melanogaster model of Huntington's disease. Particulars: 33 μM, 10 days. In kind it is in vivo. How it is done:
Meclizine was also tested in a transgenic insect model of Huntington's disease in which the first 548 amino acids of human Htt (containing 128 glutamines) was expressed in the […] of Drosophila melanogaster. The UAS-Htt-Q0 and UAS-Htt-[…] lines encoding the first 548 amino acids of human Htt containing either 0 or 128 glutamines, respectively (7), were gifts from Troy Littleton. The elav-GAL4 driver was from the Bloomington Stock Center (#8765). The UAS-Htt-[…] line was crossed to elav-GAL4/CyO to obtain […] flies. Equal numbers of newly enclosed UAS-[…] flies were added to vials containing Carolina Biological Instant Fly food that had been freshly made up with water and meclizine or DMSO vehicle at different concentrations (100, 33, 11 or 3 μM). Flies were changed to fresh food and drug every 2 days and were maintained at 25° C. throughout the experiment. Neurodegeneration was assessed using the pseudopupil technique at day 10 by scoring the rhabdomere number/ommatidium from at least 8 animals for each condition; see Jackson et al., Neuron 21:633 (1998). The experiment was performed twice and scoring was conducted in a blinded manner. Western blot analysis using mouse anti-human HD (mAb2216 from Chemicon, Temecula, Calif.) was performed using lysates from UAS-[…] adult flies that had been fed on either meclizine or DMSO at 33 μM for 10 days.

Another test concerns male C57BL/6 mice. The test can be described thus: Murine model of stroke (transient middle cerebral artery occlusion). In kind it is in vivo, mouse.

Counter-ions that a name gives are not always drawn.

For the compound `Cc1cccc(CN2CCN(C(c3ccccc3)c3ccc(Cl)cc3)CC2)c1` (racemic) [Meclizine, meclizine hydrochloride], the “oxygen consumption and extracellular acidification rate in other cell types” value in test [1] is “reductions in oxygen consumption and concomitant increase in extracellular acidification rate”. For the same compound, the “respiration (OCR) in primary cortical neurons” value in test [2] is “inhibits respiration”. Further, the HIF stabilization result with HIF1-α and HIF2-α is listed as “No HIF stabilization”. Moreover, in test [3] (33.33 μM), the PolyQ protein aggregation entry is on record as “no effects” and the “transgenic protein expression (worms)” value is recorded as “no changes were observed”. Moreover, the axonal swelling entry in test [3] (33.33 μM, PLM neurons) is on record as “reduced”. In addition, the “sensory response to tail poke” value in test [3] (mutant PolyQ animals, 3 days) is “improved the sensory response to tail poke in a dose dependent manner”. Further, the “concentration of optimal response” value in test [3] (touch response) was 33.33 µM. Moreover, in test [4], the “transgenic protein expression (flies)” value is given as “did not influence”. For the same compound, the rhabdomere loss result in test [4] (compared to DMSO) is “did protect against rhabdomere loss”. Besides, the “CBF (cerebral blood flow)” value in the test on male C57BL/6 mice (100 mg/kg i.p.) is “did not differ significantly”. Also, in the test on male C57BL/6 mice (two intraperitoneal injections of 100 mg/kg at 17 and 3 hours before ischemia), the “infarct volume (brain)” value is recorded as “significantly lower”.
